Values of other authors as cited in patent US20220370535A1, “ANTIVIRAL ESSENTIAL OIL COMPOSITIONS” (priority 2020, published 2022).

Assays:
[1] = system: SARS-CoV-2; settings: inhibition of the virus in cell-based assay
[2] = biological target: SARS-CoV-2, Mpro (Severe acute respiratory syndrome coronavirus 2, UniProt P0DTD1); settings: nelfinavir, pitavastatin, perampanel, praziquantel compared

| Structure (SMILES) | EC50 [1] | inhibitor ranking among 4 tested drugs [2] |
| --- | --- | --- |
| CCN(CC)CCCC(C)Nc1ccnc2cc(Cl)ccc12 (centres unmarked) [chloroquine] | 1.13 µM |  |
| Cc1c(O)cccc1C(=O)N[C@@H](CSc1ccccc1)[C@H](O)CN1C[C@H]2CCCC[C@H]2C[C@H]1C(=O)NC(C)(C)C [nelfinavir] |  | most potential inhibitor |
